Assay results taken from PubChem BioAssay AID1845207 (Molecular Pharmacology Branch, DTP, NCI, 2023).

Tested on: NCI-H1876 tumor spheroid viability
Experiment: Anticancer human tumor NCI-H1876 cell line growth inhibition;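 further: spheroids exposed to compounds for seven days before the viability read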;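 on viability, T/C: percent of DMSO vehicle control viability so 100% = vehicle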
Conditions: spheroids with HUVEC and MSC; for IC50: curve of first compound; for viability, T/C: stronger effect = lower value
Procedure, shortened: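 Complex tumor spheroids combined malignant cells with endothelial cells and mesenchymal stem cells. DNA-damaging drugs and DNA repair inhibitors were tested alone and in combination, at half-log dilutions down from clinical Cmax (top 10 microM if Cmax unknown), 0.25% DMSO final.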

Structure (SMILES): CC(C)n1c(=O)n(C)c2cnc3cc(F)c(-c4ccc(OCCCN5CCCCC5)nc4)cc3c21 + CC[C@@]1(O)C(=O)OCc2c1cc1n(c2=O)Cc2cc3c(CN(C)C)c(O)ccc3nc2-1
- IC50 (second compound 0.003 µM): < 31.6 nM
- IC50 (second compound 0.00949 µM): < 31.6 nM
- IC50 (second compound 0.03 µM): < 31.6 nM
- IC50 (second compound 0.0949 µM): < 31.6 nM
- IC50 (second compound 0.3 µM): < 31.6 nM
- viability, T/C (second compound 0.003 µM, first compound 0.0316 µM): 25.1%
- viability, T/C (second compound 0.003 µM, first compound 0.1 µM): 25.5%
- viability, T/C (second compound 0.003 µM, first compound 0.316 µM): 34.6%
- viability, T/C (second compound 0.003 µM, first compound 1 µM): 45.5%
- viability, T/C (second compound 0.003 µM, first compound 3.16 µM): 44.1%
- viability, T/C (second compound 0.003 µM, first compound 10 µM): 28.1%
- viability, T/C (second compound 0.00949 µM, first compound 0.0316 µM): 5.02%
- viability, T/C (second compound 0.00949 µM, first compound 0.1 µM): 4.95%
- viability, T/C (second compound 0.00949 µM, first compound 0.316 µM): 5.93%
- viability, T/C (second compound 0.00949 µM, first compound 1 µM): 7.51%
- viability, T/C (second compound 0.00949 µM, first compound 3.16 µM): 10.2%
- viability, T/C (second compound 0.00949 µM, first compound 10 µM): 11.6%
- viability, T/C (second compound 0.03 µM, first compound 0.0316 µM): 2.64%
- viability, T/C (second compound 0.03 µM, first compound 0.1 µM): 2.9%
- viability, T/C (second compound 0.03 µM, first compound 0.316 µM): 2.81%
- viability, T/C (second compound 0.03 µM, first compound 1 µM): 3.34%
- viability, T/C (second compound 0.03 µM, first compound 3.16 µM): 3.91%
- viability, T/C (second compound 0.03 µM, first compound 10 µM): 4.32%
- viability, T/C (second compound 0.0949 µM, first compound 0.0316 µM): 2.03%
- viability, T/C (second compound 0.0949 µM, first compound 0.1 µM): 2.07%
- viability, T/C (second compound 0.0949 µM, first compound 0.316 µM): 2.33%
- viability, T/C (second compound 0.0949 µM, first compound 1 µM): 2.86%
- viability, T/C (second compound 0.0949 µM, first compound 3.16 µM): 2.99%
- viability, T/C (second compound 0.0949 µM, first compound 10 µM): 3.42%
- viability, T/C (second compound 0.3 µM, first compound 0.0316 µM): 1.97%
- viability, T/C (second compound 0.3 µM, first compound 0.1 µM): 2.19%
- viability, T/C (second compound 0.3 µM, first compound 0.316 µM): 1.74%
- viability, T/C (second compound 0.3 µM, first compound 1 µM): 2.16%
- viability, T/C (second compound 0.3 µM, first compound 3.16 µM): 2.86%
- viability, T/C (second compound 0.3 µM, first compound 10 µM): 2.71%

Structure (SMILES): Cc1cc(C)c(CNC(=O)c2cc(-c3ccc(CN4CCOCC4)cc3)cc3c2cnn3C2CCCC2)c(=O)[nH]1 + Cn1nnc2c(C(N)=O)ncn2c1=O
- IC50 (second compound 1 µM): 713 nM
- IC50 (second compound 3.16 µM): 873 nM
- IC50 (second compound 10 µM): 546 nM
- IC50 (second compound 31.6 µM): 750 nM
- IC50 (second compound 100 µM): 201 nM
- viability, T/C (second compound 1 µM, first compound 0.0316 µM): 93.8%
- viability, T/C (second compound 1 µM, first compound 0.1 µM): 79.2%
- viability, T/C (second compound 1 µM, first compound 0.316 µM): 60.2%
- viability, T/C (second compound 1 µM, first compound 1 µM): 44.8%
- viability, T/C (second compound 1 µM, first compound 3.16 µM): 29.3%
- viability, T/C (second compound 1 µM, first compound 10 µM): 9.14%
- viability, T/C (second compound 3.16 µM, first compound 0.0316 µM): 85.7%
- viability, T/C (second compound 3.16 µM, first compound 0.1 µM): 78.6%
- viability, T/C (second compound 3.16 µM, first compound 0.316 µM): 64%
- viability, T/C (second compound 3.16 µM, first compound 1 µM): 49.8%
- viability, T/C (second compound 3.16 µM, first compound 3.16 µM): 27.2%
- viability, T/C (second compound 3.16 µM, first compound 10 µM): 12.2%
- viability, T/C (second compound 10 µM, first compound 0.0316 µM): 88.7%
- viability, T/C (second compound 10 µM, first compound 0.1 µM): 58.5%
- viability, T/C (second compound 10 µM, first compound 0.316 µM): 61.8%
- viability, T/C (second compound 10 µM, first compound 1 µM): 46.8%
- viability, T/C (second compound 10 µM, first compound 3.16 µM): 26.6%
- viability, T/C (second compound 10 µM, first compound 10 µM): 13.3%
- viability, T/C (second compound 31.6 µM, first compound 0.0316 µM): 53.8%
- viability, T/C (second compound 31.6 µM, first compound 0.1 µM): 74.6%
- viability, T/C (second compound 31.6 µM, first compound 0.316 µM): 59.3%
- viability, T/C (second compound 31.6 µM, first compound 1 µM): 44.7%
- viability, T/C (second compound 31.6 µM, first compound 3.16 µM): 26.3%
- viability, T/C (second compound 31.6 µM, first compound 10 µM): 10.7%
- viability, T/C (second compound 100 µM, first compound 0.0316 µM): 58.8%
- viability, T/C (second compound 100 µM, first compound 0.1 µM): 52.3%
- viability, T/C (second compound 100 µM, first compound 0.316 µM): 47%
- viability, T/C (second compound 100 µM, first compound 1 µM): 39.8%
- viability, T/C (second compound 100 µM, first compound 3.16 µM): 25.2%
- viability, T/C (second compound 100 µM, first compound 10 µM): 8.6%
